How the values were obtained:
APP/PS1 mice = assay: In vivo two-photon imaging of amyloid plaques; parameters: species or system mouse; details: systemic dosing; tracked over multiple weeks
Experimental: FIG. 11 provides In vivo imaging of Aβ plaques in APP/PS1 mice treated with anti-beta amyloid antibody was performed. Systemic dosing of MABT modulates individual amyloid plaques in vivo. Amyloid plaques in APP/PS1 animals were labeled with Methoxy-X04 injected I.P., visualized by in vivo two-photon microscopy and tracked over multiple weeks (A). The relative change in plaque volume over time plotted as fold-increase from the initial imaging session (B).
Cranial windows were implanted above the somatosensory cortex of 10-month old APP hAPP(V717I)/PS1 mice, as previously described (Trachtenberg et al 2002, Holtmaat et al 2009), 2 weeks before the initial imaging session. Twenty-four hours prior to each imaging session animals were injected with 10 mg/kg Methoxy-X04 I.P. to visualize individual amyloid plaques (Klunk et al 2002) and immediately prior to imaging injected I.V. with AngioSense680 (VisEn Medical) to visualize blood vessels. For each imaging session animals were anesthetized with an isoflurane-oxygen mixture and mounted to the microscope using a head post. Images were collected via a two-photon laser scanning microscope (Ultima in vivo; Prairie Technologies) using a Ti:sapphire laser (MaiTai DeepSee; Spectra Physics) tuned to 820 nm delivering ˜30 mW to the back-focal plane of a 40× NA 0.8 objective lens (Olympus). […]

Aβ1-42 = Aβ1-42 (Homo sapiens, UniProt P05067); assay: Aβ ELISA, binding to Aβ peptides and Aβ1-42 assembly states; parameters: purchased Bachem; details: ELISA; monomeric, oligomeric, fibers, oligomer assemblies
Sequence of Aβ1-42 (P05067 672-713): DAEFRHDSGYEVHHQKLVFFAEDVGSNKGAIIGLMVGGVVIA
Description: FIG. 1 provides graphs and immunohistochemical images corresponding to the experiments described in Example 6.1 and 6.2. […] As a control, an anti-Aβ IgG monoclonal antibody with a N-terminal epitope was used. […] The mean (±SEM) of two assays is shown.
Murine anti-Aβ monoclonal antibodies were generated by immunizing mice with an Aβ peptide antigen using a liposomal vaccine formulation as previously described (Muhs et al., 2007). Several criteria were used to select candidate antibodies, including the ability to bind multiple Aβ species and to inhibit Aβ1-42 assembly into small cytotoxic peptide aggregates. A monoclonal murine mAb with an IgG2b backbone (mMABT) was selected for in vivo functionality studies using both single-transgenic murine mutant human APP and double-transgenic murine mutant human APP/PS1 models of Alzheimer's Disease. […] These ranged from monomeric and oligomeric Aβ1-42 fractions isolated by size-exclusion chromatography (SEC), mature Aβ1-42 fibers, to a more complex mixture of highly neurotoxic Aβ1-42 oligomer assemblies, ranging in size from dimers and trimers to higher molecular-weight multimers (see FIG. 8).

Q: For “MABT: humanized anti-Aβ monoclonal antibody of IgG4 isotype, affinity matured and humanized form of mouse mMABT”, which individual plaque volume (APP/PS1 mice) is on record?
A: decreased in volume

Q: What about the “binding to different Aβ1-42 peptide preparations” value (Aβ1-42) of the same substance?
A: highly comparable among the different Aβ1-42 assembly states

Source: patent US9221900B2, “Methods for identifying safe and functional humanized antibodies” (AC IMMUNE S.A., priority 2010, dated 2015)
